± gives the expanded uncertainty stated by the source.
Legend:
[1] = xn = mol fraction of the nth substance listed; settings: Maximal bubble pressure
[2] = Maximal bubble pressure

Structure (SMILES): CCCCCCCC [octane] + CCO
- surface tension liquid-gas ([1]; 298.15 K, x2 = 0.099): 20.91 ± 0.26 mN/m
- surface tension liquid-gas ([1]; 298.15 K, x2 = 0.208): 20.9 ± 0.26 mN/m
- surface tension liquid-gas ([1]; 298.15 K, x2 = 0.294): 20.79 ± 0.26 mN/m
- surface tension liquid-gas ([1]; 298.15 K, x2 = 0.391): 20.8 ± 0.26 mN/m
- surface tension liquid-gas ([1]; 298.15 K, x2 = 0.512): 20.75 ± 0.26 mN/m
- surface tension liquid-gas ([1]; 298.15 K, x2 = 0.604): 20.81 ± 0.26 mN/m
- surface tension liquid-gas ([1]; 298.15 K, x2 = 0.707): 20.9 ± 0.26 mN/m
- surface tension liquid-gas ([1]; 298.15 K, x2 = 0.809): 21.03 ± 0.26 mN/m
- surface tension liquid-gas ([1]; 298.15 K, x2 = 0.871): 21.19 ± 0.26 mN/m
- surface tension liquid-gas ([1]; 298.15 K, x2 = 0.908): 21.44 ± 0.26 mN/m
- surface tension liquid-gas ([1]; 298.15 K, x2 = 0.955): 21.69 ± 0.26 mN/m
- surface tension liquid-gas ([1]; 308.15 K, x2 = 0.105): 19.95 ± 0.25 mN/m
- surface tension liquid-gas ([1]; 308.15 K, x2 = 0.162): 19.83 ± 0.25 mN/m
- surface tension liquid-gas ([1]; 308.15 K, x2 = 0.209): 19.81 ± 0.25 mN/m
- surface tension liquid-gas ([1]; 308.15 K, x2 = 0.31): 19.73 ± 0.25 mN/m
- surface tension liquid-gas ([1]; 308.15 K, x2 = 0.403): 19.71 ± 0.25 mN/m
- surface tension liquid-gas ([1]; 308.15 K, x2 = 0.5): 19.72 ± 0.25 mN/m
- surface tension liquid-gas ([1]; 308.15 K, x2 = 0.607): 19.71 ± 0.25 mN/m
- surface tension liquid-gas ([1]; 308.15 K, x2 = 0.707): 19.86 ± 0.25 mN/m
- surface tension liquid-gas ([1]; 308.15 K, x2 = 0.807): 20.05 ± 0.25 mN/m
- surface tension liquid-gas ([1]; 308.15 K, x2 = 0.904): 20.39 ± 0.25 mN/m
- surface tension liquid-gas ([1]; 308.15 K, x2 = 0.955): 20.77 ± 0.26 mN/m
- surface tension liquid-gas ([1]; 318.15 K, x2 = 0.103): 18.96 ± 0.25 mN/m
- surface tension liquid-gas ([1]; 318.15 K, x2 = 0.205): 18.71 ± 0.25 mN/m
- surface tension liquid-gas ([1]; 318.15 K, x2 = 0.345): 18.64 ± 0.25 mN/m
- surface tension liquid-gas ([1]; 318.15 K, x2 = 0.448): 18.6 ± 0.25 mN/m
- surface tension liquid-gas ([1]; 318.15 K, x2 = 0.598): 18.63 ± 0.25 mN/m
- surface tension liquid-gas ([1]; 318.15 K, x2 = 0.703): 18.69 ± 0.25 mN/m
- surface tension liquid-gas ([1]; 318.15 K, x2 = 0.809): 18.83 ± 0.25 mN/m
- surface tension liquid-gas ([1]; 318.15 K, x2 = 0.91): 19.18 ± 0.25 mN/m
- surface tension liquid-gas ([1]; 318.15 K, x2 = 0.958): 19.85 ± 0.25 mN/m

Structure (SMILES): CCCCCCCCCC [decane] + CCO
- surface tension liquid-gas ([1]; 303.15 K, x2 = 0.034): 22.85 ± 0.26 mN/m
- surface tension liquid-gas ([1]; 303.15 K, x2 = 0.101): 22.6 ± 0.26 mN/m
- surface tension liquid-gas ([1]; 303.15 K, x2 = 0.189): 22.3 ± 0.26 mN/m
- surface tension liquid-gas ([1]; 303.15 K, x2 = 0.29): 22.1 ± 0.26 mN/m
- surface tension liquid-gas ([1]; 303.15 K, x2 = 0.395): 21.95 ± 0.26 mN/m
- surface tension liquid-gas ([1]; 303.15 K, x2 = 0.492): 21.85 ± 0.26 mN/m
- surface tension liquid-gas ([1]; 303.15 K, x2 = 0.59): 21.75 ± 0.26 mN/m
- surface tension liquid-gas ([1]; 303.15 K, x2 = 0.696): 21.65 ± 0.26 mN/m
- surface tension liquid-gas ([1]; 303.15 K, x2 = 0.801): 21.55 ± 0.26 mN/m
- surface tension liquid-gas ([1]; 303.15 K, x2 = 0.907): 21.45 ± 0.26 mN/m
- surface tension liquid-gas ([1]; 303.15 K, x2 = 0.959): 21.44 ± 0.26 mN/m
- surface tension liquid-gas ([1]; 303.15 K, x2 = 0.982): 21.43 ± 0.26 mN/m
- surface tension liquid-gas ([1]; 308.15 K, x2 = 0.076): 22.25 ± 0.26 mN/m
- surface tension liquid-gas ([1]; 308.15 K, x2 = 0.173): 22 ± 0.26 mN/m
- surface tension liquid-gas ([1]; 308.15 K, x2 = 0.286): 21.8 ± 0.26 mN/m
- surface tension liquid-gas ([1]; 308.15 K, x2 = 0.373): 21.68 ± 0.26 mN/m
- surface tension liquid-gas ([1]; 308.15 K, x2 = 0.486): 21.54 ± 0.26 mN/m
- surface tension liquid-gas ([1]; 308.15 K, x2 = 0.593): 21.46 ± 0.26 mN/m
- surface tension liquid-gas ([1]; 308.15 K, x2 = 0.695): 21.4 ± 0.26 mN/m
- surface tension liquid-gas ([1]; 308.15 K, x2 = 0.8): 21.29 ± 0.26 mN/m
- surface tension liquid-gas ([1]; 308.15 K, x2 = 0.902): 21.2 ± 0.26 mN/m
- surface tension liquid-gas ([1]; 308.15 K, x2 = 0.954): 21.17 ± 0.26 mN/m
- surface tension liquid-gas ([1]; 318.15 K, x2 = 0.067): 21.51 ± 0.26 mN/m
- surface tension liquid-gas ([1]; 318.15 K, x2 = 0.16): 21.25 ± 0.26 mN/m
- surface tension liquid-gas ([1]; 318.15 K, x2 = 0.272): 21 ± 0.26 mN/m
- surface tension liquid-gas ([1]; 318.15 K, x2 = 0.366): 20.83 ± 0.26 mN/m
- surface tension liquid-gas ([1]; 318.15 K, x2 = 0.472): 20.67 ± 0.26 mN/m
- surface tension liquid-gas ([1]; 318.15 K, x2 = 0.585): 20.54 ± 0.26 mN/m
- surface tension liquid-gas ([1]; 318.15 K, x2 = 0.698): 20.48 ± 0.26 mN/m
- surface tension liquid-gas ([1]; 318.15 K, x2 = 0.803): 20.37 ± 0.25 mN/m
- surface tension liquid-gas ([1]; 318.15 K, x2 = 0.907): 20.3 ± 0.25 mN/m
- surface tension liquid-gas ([1]; 318.15 K, x2 = 0.958): 20.36 ± 0.25 mN/m

Structure (SMILES): CCCCCCCCCCCCCC [tetradecane]
- surface tension liquid-gas ([2]; 313.15 K): 24.8 ± 0.27 mN/m

Structure (SMILES): CCCCCCCCCCCCCC [tetradecane] + CCO
- surface tension liquid-gas ([1]; 313.15 K, x2 = 0.054): 24.67 ± 0.27 mN/m
- surface tension liquid-gas ([1]; 313.15 K, x2 = 0.072): 24.67 ± 0.27 mN/m
- surface tension liquid-gas ([1]; 313.15 K, x2 = 0.143): 24.53 ± 0.27 mN/m
- surface tension liquid-gas ([1]; 313.15 K, x2 = 0.191): 24.25 ± 0.27 mN/m
- surface tension liquid-gas ([1]; 313.15 K, x2 = 0.3): 23.3 ± 0.26 mN/m
- surface tension liquid-gas ([1]; 313.15 K, x2 = 0.412): 22.52 ± 0.26 mN/m
- surface tension liquid-gas ([1]; 313.15 K, x2 = 0.522): 21.98 ± 0.26 mN/m
- surface tension liquid-gas ([1]; 313.15 K, x2 = 0.62): 21.76 ± 0.26 mN/m
- surface tension liquid-gas ([1]; 313.15 K, x2 = 0.702): 21.8 ± 0.26 mN/m
- surface tension liquid-gas ([1]; 313.15 K, x2 = 0.8): 21.66 ± 0.26 mN/m
- surface tension liquid-gas ([1]; 313.15 K, x2 = 0.9): 21.4 ± 0.26 mN/m
- surface tension liquid-gas ([1]; 313.15 K, x2 = 0.945): 21.17 ± 0.26 mN/m
- surface tension liquid-gas ([1]; 313.15 K, x2 = 0.967): 21.02 ± 0.26 mN/m
- surface tension liquid-gas ([1]; 313.15 K, x2 = 0.988): 20.82 ± 0.26 mN/m

Structure (SMILES): CCCCCCCCCC [decane]
- surface tension liquid-gas ([2]; 303.15 K): 22.9 ± 0.26 mN/m
- surface tension liquid-gas ([2]; 308.15 K): 22.5 ± 0.26 mN/m
- surface tension liquid-gas ([2]; 318.15 K): 21.66 ± 0.26 mN/m

Structure (SMILES): CCO [ethanol]
- surface tension liquid-gas ([2]; 298.15 K): 22.1 ± 0.26 mN/m
- surface tension liquid-gas ([2]; 303.15 K): 21.7 ± 0.26 mN/m
- surface tension liquid-gas ([2]; 308.15 K): 21.3 ± 0.26 mN/m
- surface tension liquid-gas ([2]; 313.15 K): 20.71 ± 0.26 mN/m
- surface tension liquid-gas ([2]; 318.15 K): 20.4 ± 0.25 mN/m

Structure (SMILES): CCCCCCCCCCCC [dodecane] + CCO
- surface tension liquid-gas ([1]; 298.15 K, x2 = 0.055): 24.87 ± 0.27 mN/m
- surface tension liquid-gas ([1]; 298.15 K, x2 = 0.097): 24.72 ± 0.27 mN/m
- surface tension liquid-gas ([1]; 298.15 K, x2 = 0.184): 24.33 ± 0.27 mN/m
- surface tension liquid-gas ([1]; 298.15 K, x2 = 0.264): 23.95 ± 0.27 mN/m
- surface tension liquid-gas ([1]; 298.15 K, x2 = 0.366): 23.47 ± 0.26 mN/m
- surface tension liquid-gas ([1]; 298.15 K, x2 = 0.472): 23.1 ± 0.26 mN/m
- surface tension liquid-gas ([1]; 298.15 K, x2 = 0.589): 22.97 ± 0.26 mN/m
- surface tension liquid-gas ([1]; 298.15 K, x2 = 0.692): 22.92 ± 0.26 mN/m
- surface tension liquid-gas ([1]; 298.15 K, x2 = 0.799): 22.78 ± 0.26 mN/m
- surface tension liquid-gas ([1]; 298.15 K, x2 = 0.905): 22.57 ± 0.26 mN/m
- surface tension liquid-gas ([1]; 298.15 K, x2 = 0.951): 22.38 ± 0.26 mN/m
- surface tension liquid-gas ([1]; 303.15 K, x2 = 0.055): 24.6 ± 0.27 mN/m
- surface tension liquid-gas ([1]; 303.15 K, x2 = 0.09): 24.5 ± 0.27 mN/m
- surface tension liquid-gas ([1]; 303.15 K, x2 = 0.174): 24.05 ± 0.27 mN/m
- surface tension liquid-gas ([1]; 303.15 K, x2 = 0.247): 23.7 ± 0.26 mN/m
- surface tension liquid-gas ([1]; 303.15 K, x2 = 0.332): 23.35 ± 0.26 mN/m
- surface tension liquid-gas ([1]; 303.15 K, x2 = 0.443): 22.92 ± 0.26 mN/m
- surface tension liquid-gas ([1]; 303.15 K, x2 = 0.571): 22.65 ± 0.26 mN/m
- surface tension liquid-gas ([1]; 303.15 K, x2 = 0.684): 22.52 ± 0.26 mN/m
- surface tension liquid-gas ([1]; 303.15 K, x2 = 0.795): 22.39 ± 0.26 mN/m
- surface tension liquid-gas ([1]; 303.15 K, x2 = 0.903): 22.16 ± 0.26 mN/m
- surface tension liquid-gas ([1]; 303.15 K, x2 = 0.951): 21.98 ± 0.26 mN/m

Structure (SMILES): CCCCCCCC [octane]
- surface tension liquid-gas ([2]; 298.15 K): 21.1 ± 0.26 mN/m
- surface tension liquid-gas ([2]; 308.15 K): 20.2 ± 0.26 mN/m
- surface tension liquid-gas ([2]; 318.15 K): 19.2 ± 0.25 mN/m

Structure (SMILES): CCCCCCCCCCCC [dodecane]
- surface tension liquid-gas ([2]; 298.15 K): 24.9 ± 0.27 mN/m
- surface tension liquid-gas ([2]; 303.15 K): 24.73 ± 0.27 mN/m

Reference: the NIST ThermoML archive (doi:10.1016/j.jct.2011.04.005)
